Where two headings read alike, the source gives them in different places.

For test [1], the target named is cathepsin L (Homo sapiens (Human), UniProt P07711). The test can be described thus: Cathepsin L inhibition assay (Z-LR-AMC fluorogenic substrate). It is filed as biochemical. The method, then: Assays to evaluate the inhibition of cathepsin L contained 25 pM cathepsin L (RD systems: 952-CY-010), 5 uM Z-LR-AMC fluorogenic peptide substrate, 100 nL of test compound in 100% DMSO, in a total of 10 uL of 20 mM KPO4, pH 6.0, 150 mM NaCl, 0.005% Tween20, 5 mM DTT in black low volume 384-well plates. The production of AMC (7-amino-4-methylcoumarin) was followed at 5 min intervals at 355 nm excitation, 460 nm emission in an Envision microplate reader (PerkinElmer). Reaction rates were determined by linear regression of the resulting progress curves. Rates were normalized to % inhibition, where 0% is equal to the rate in the presence of enzyme, and 100% is equal to the rate in the absence of enzyme. Nonlinear regression fits of the data to a one-site dose response curve were performed using XLFit (IDBS). […]

In test [2] the target is SARS-CoV-2 M^pro protease (Severe acute respiratory syndrome coronavirus 2 (2019-nCoV) (SARS-CoV-2), UniProt P0DTD1). The experiment in a line: Fluorogenic enzymatic assay, SARS-CoV-2 Mpro inhibition. It is filed as biochemical. The note with it: quenched DABCYL/EDANS peptide substrate.
Test [3] concerns the target SARS-CoV-2 M^pro (Severe acute respiratory syndrome coronavirus 2 (2019-nCoV) (SARS-CoV-2), UniProt P0DTD1). The test can be described thus: biochemical. The note with it: 20 nM M^pro, 10 uM substrate, 1 hr, HPLC product peak area; read-out: IC50 against SARS-CoV-2 M^pro, HPLC-confirmed.
The mark [4] stands for this setting: 25 pM cathepsin L, 5 uM Z-LR-AMC, pH 6.0, read-out: IC50 Cathepsin L.

Sequence of cathepsin L (P07711 114-333): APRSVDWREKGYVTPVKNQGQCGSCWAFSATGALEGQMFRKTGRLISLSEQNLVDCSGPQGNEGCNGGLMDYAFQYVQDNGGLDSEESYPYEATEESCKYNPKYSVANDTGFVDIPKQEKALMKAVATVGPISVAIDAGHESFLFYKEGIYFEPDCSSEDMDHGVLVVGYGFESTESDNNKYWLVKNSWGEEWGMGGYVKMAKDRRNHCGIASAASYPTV

As for `Cc1cc[nH]c(=O)c1C(=O)NCC(NC(=O)c1cncc2ccccc12)c1ccc2ccccc2c1` (racemic) [(101), N-{2-[(2-hydroxy-4-methylpyridin-3-yl)formamido]-1-(naphthalen-2-yl)ethyl}isoquinoline-4-carboxamide], the half-inhibitory concentration (IC50) was over 100 µM in test [1] (setting [4]), 1.7 µM in test [2] and 5.4 µM in test [3].
With `Cc1cc[nH]c(=O)c1C(=O)NC[C@H](NC(=O)c1cncc2ccccc12)c1ccc2ccccc2c1` (single isomer, unassigned) [(102)], the IC50 in test [1] (setting [4]) is 47.8 µM; in test [2] it was 1.6 µM.
For `Cc1cc[nH]c(=O)c1C(=O)NC[C@H](NC(=O)c1cncc2ccccc12)c1ccc2ccccc2c1` (single isomer, unassigned) [(103)], in that order: 36.8 µM and 71.2 µM.
`Cc1cc(C(=O)NC(CNC(=O)c2cccc3sncc23)c2ccc3ccccc3c2)cc(=O)[nH]1` (stereo not drawn) [(104)] registered a concentration for half-maximal inhibition (IC50) in test [2] of 47.8 µM.
`O=C(NCC(NC(=O)c1cncc2sccc12)c1ccc2ccccc2c1)c1cc(O)cc(O)c1` (stereo not drawn) [(105)]: the IC50 in test [2] came to 61.3 µM.
On to `O=C(NCC(NC(=O)C1COc2ccccc21)c1ccccc1)c1cccc2cnsc12` (stereo not drawn) [(106)], for which the IC50 worked out at 10.2 µM in test [1] (setting [4]), 8.9 µM in test [2] and 28 µM in test [3].
In test [2], `O=C(NCC(NC(=O)c1cncc2[nH]ccc12)c1ccc2ccccc2c1)c1ccsc1` (stereo not drawn) [(107)] had an IC50 of 19.2 µM.
Still for that read-out and setting: the result for `CC(=O)c1c(C)[nH]c(C(=O)N[C@H](CNC(=O)c2ccc(F)c3ccccc23)c2ccccc2)c1C` [(108), (S)-4-acetyl-N-(2-(4-fluoro-1-naphthamido)-1-phenylethyl)-3,5-dimethyl-1H-pyrrole-2-carboxamide] reads 32.2 µM.
Consider `CC(C)C[C@H](NC(=O)OCc1ccccc1)C(=O)N[C@@H](CC1CCNC1=O)C(O)S(=O)(=O)O` (stereo partly drawn) [GC-376, reference compound], for which the half-maximal inhibitory concentration (IC50) in test [1] (positive control tested in parallel, read-out: IC50 cathepsin L (positive control)) turned out to be 0.002 µM.

By IC50 is commonly meant the midpoint of a concentration-inhibition curve.

For the origin of these results see US20240228460A1, “PROTEASE INHIBITORS AND METHODS OF MAKING SAME” (priority 2022, published 2024).
